In patent US9067190B2, “Method for loading amphiphile particles with active agents” (CAMURUS AB, priority 2003, dated 2015):

How the values were obtained:
[1] = Higher loading of progesterone by heat treatment (GMO/oleic acid/Lutrol F127 cubic particles); format: physicochemical
Experimental: Pre-formulations were prepared, including the fatty acid oleic acid, by the following method. • a) An initial melt was prepared containing GMO (85.5%), oleic acid (4.5%) and Lutrol F127 (10%). To 9 g of water under mechanical stirring was added 1 g of the molten mixture to form a coarse dispersion. • b) The coarse dispersion was homogenised with a microfluidiser at 345 bar. • c) The dispersion was heated to 120° C. for 20 minutes and cooled to room temperature.
The steroid hormone progesterone was incubated with the cubic particles formed in steps a) to c), at room temperature. The equilibrium loading level was 3% by weight.
The above method was repeated by the active agent progesterone was included in the aqueous phase prior to the homogenisation and heat treatment steps. The loading level was again examined and established to be 18 wt %. The effect upon the particle size distribution was minimal.
The composition with 18 wt % progesterone generated above was stored at room temperature for 14 days.

[2] = Effect of heat treatment on carrier-bound fraction of octreotide (loading system 3); format: physicochemical; conditions: 200 μg/ml octreotide, 5% amphiphile analogue of loading system 3
Experimental: Octreotide at a concentration of 200 μg/ml was added to 5% amphiphile analogues of loading system 3 (water content 95%). One set of samples were equilibrated at room temperature for 1 day, while another set was autoclaved at 125° C. for 20 minutes. The ocreotide concentration was determined by HPLC using a size exclusion column coupled to a UV detector.

Row | Effect upon the particle size distribution ([1]; heat treatment loading of progesterone) | Loading level ([1]; progesterone in aqueous phase prior to homogenisation and heat treatment (120° C., 20 minutes)) | Equilibrium loading level ([1]; progesterone incubated with preformed cubic particles at room temperature) | SMILES | % bound octreotide ([2]; 1 day at room temperature) | % bound octreotide ([2]; After Autoclavation 20 min (125° C.))
1 | minimal | 18 wt % | 3 % by weight | CC(=O)[C@H]1CC[C@H]2[C@@H]3CCC4=CC(=O)CC[C@]4(C)[C@H]3CC[C@]12C [progesterone] | – | –
2 | – | – | – | C[C@@H](O)[C@@H]1NC(=O)[C@H](CCCCN)NC(=O)[C@@H](Cc2c[nH]c3ccccc23)NC(=O)[C@H](Cc2ccccc2)NC(=O)[C@@H](NC(=O)[C@H](N)Cc2ccccc2)CSSC[C@@H](C(=O)N[C@H](CO)[C@@H](C)O)NC1=O [octreotide] | 18.07% | 30.04%
